Measurements as given in ChEMBL document CHEMBL5291721, “A preclinical secondary pharmacology resource illuminates target-adverse drug reaction associations of marketed drugs” (Nat Commun, 2023).

Assays:
[1] = molecular target: 5-hydroxytryptamine receptor 2A (Homo sapiens, UniProt P28223)
[2] = molecular target: T1, Muscarinic acetylcholine receptor M2 (Homo sapiens, UniProt P08172)
T1 sequence (P08172 whole entry): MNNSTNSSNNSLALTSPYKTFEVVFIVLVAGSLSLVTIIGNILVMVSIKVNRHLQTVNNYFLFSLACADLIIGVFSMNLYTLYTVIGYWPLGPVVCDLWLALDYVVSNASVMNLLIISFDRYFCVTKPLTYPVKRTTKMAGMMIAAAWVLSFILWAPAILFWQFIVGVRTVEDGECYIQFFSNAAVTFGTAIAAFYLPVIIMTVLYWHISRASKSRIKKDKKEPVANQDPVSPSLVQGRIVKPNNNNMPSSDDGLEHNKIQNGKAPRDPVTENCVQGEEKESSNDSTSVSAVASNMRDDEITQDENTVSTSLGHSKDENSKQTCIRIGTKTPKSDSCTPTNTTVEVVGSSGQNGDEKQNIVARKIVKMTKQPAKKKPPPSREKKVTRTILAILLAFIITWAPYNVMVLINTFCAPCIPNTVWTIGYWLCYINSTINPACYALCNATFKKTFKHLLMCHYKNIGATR

[3] = molecular target: T2, 5-hydroxytryptamine receptor 1A (Homo sapiens, UniProt P08908)
T2 sequence (P08908 whole entry): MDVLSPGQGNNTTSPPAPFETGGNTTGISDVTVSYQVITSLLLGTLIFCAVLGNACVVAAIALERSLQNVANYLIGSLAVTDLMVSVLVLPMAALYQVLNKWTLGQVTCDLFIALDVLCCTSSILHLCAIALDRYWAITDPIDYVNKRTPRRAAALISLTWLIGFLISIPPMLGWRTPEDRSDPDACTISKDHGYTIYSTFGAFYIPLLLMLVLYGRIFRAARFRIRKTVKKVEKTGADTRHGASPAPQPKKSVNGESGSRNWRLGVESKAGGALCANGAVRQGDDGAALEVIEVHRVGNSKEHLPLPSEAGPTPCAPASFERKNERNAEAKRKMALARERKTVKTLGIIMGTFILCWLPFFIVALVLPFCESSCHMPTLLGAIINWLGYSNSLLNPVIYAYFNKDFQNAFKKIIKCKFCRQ

[4] = molecular target: T3, Endothelin receptor type B (Homo sapiens, UniProt P24530)
T3 sequence (P24530 whole entry): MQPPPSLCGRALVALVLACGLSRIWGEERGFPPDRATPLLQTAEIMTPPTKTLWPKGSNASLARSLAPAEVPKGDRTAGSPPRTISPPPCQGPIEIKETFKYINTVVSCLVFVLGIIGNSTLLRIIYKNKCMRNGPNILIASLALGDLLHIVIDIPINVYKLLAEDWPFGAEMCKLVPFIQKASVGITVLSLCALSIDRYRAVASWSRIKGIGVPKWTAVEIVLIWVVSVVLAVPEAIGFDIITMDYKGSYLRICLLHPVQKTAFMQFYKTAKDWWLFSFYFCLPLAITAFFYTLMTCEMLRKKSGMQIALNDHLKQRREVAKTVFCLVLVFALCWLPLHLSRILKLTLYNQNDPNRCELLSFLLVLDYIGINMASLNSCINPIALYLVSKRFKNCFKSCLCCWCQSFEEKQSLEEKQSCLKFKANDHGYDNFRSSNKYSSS

[5] = molecular target: T4, Alpha-2A adrenergic receptor (Homo sapiens, UniProt P08913)
T4 sequence (P08913 whole entry): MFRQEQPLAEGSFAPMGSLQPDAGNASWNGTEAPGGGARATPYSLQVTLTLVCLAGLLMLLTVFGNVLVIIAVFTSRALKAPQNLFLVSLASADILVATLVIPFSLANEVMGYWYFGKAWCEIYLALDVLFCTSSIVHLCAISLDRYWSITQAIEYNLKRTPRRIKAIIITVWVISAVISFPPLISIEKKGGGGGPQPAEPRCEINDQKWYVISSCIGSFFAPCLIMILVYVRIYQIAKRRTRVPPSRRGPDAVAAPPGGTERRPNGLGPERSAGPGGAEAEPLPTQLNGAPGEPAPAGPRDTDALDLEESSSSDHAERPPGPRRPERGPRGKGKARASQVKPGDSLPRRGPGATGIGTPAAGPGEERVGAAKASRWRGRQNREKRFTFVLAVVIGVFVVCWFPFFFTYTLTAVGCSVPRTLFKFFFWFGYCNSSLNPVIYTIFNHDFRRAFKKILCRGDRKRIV

[6] = molecular target: Neurotensin receptor type 1 (Homo sapiens, UniProt P30989)
Neurotensin receptor type 1, sequence (P30989 whole entry): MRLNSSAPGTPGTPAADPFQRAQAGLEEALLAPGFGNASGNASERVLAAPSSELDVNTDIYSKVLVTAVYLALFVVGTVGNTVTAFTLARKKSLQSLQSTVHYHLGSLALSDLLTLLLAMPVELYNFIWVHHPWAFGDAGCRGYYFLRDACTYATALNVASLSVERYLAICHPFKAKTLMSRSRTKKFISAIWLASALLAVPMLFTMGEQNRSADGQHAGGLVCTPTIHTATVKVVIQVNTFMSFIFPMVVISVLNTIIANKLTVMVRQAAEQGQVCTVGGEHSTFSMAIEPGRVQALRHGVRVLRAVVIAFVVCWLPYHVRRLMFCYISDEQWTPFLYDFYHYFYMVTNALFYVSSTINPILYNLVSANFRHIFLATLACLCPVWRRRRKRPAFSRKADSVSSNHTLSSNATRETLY

Glucagon receptor = Glucagon receptor (Homo sapiens, UniProt P47871)
Glucagon receptor, sequence (P47871 whole entry): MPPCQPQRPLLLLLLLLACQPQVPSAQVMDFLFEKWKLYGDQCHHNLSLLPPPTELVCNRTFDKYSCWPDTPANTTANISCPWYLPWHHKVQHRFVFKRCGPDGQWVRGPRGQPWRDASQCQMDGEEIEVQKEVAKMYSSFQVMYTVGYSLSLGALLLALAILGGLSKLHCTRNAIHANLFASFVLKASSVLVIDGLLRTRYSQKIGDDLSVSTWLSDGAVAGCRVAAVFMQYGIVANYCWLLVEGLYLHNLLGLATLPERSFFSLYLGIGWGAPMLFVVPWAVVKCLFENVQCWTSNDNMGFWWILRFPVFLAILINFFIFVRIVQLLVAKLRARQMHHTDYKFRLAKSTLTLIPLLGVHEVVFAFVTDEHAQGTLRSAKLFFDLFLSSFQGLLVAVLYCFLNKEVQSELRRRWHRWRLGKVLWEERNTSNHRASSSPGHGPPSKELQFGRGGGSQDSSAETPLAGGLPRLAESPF

[7] = molecular target: 5-hydroxytryptamine receptor 2B (Homo sapiens, UniProt P41595)
5-hydroxytryptamine receptor 2B, sequence (P41595 whole entry): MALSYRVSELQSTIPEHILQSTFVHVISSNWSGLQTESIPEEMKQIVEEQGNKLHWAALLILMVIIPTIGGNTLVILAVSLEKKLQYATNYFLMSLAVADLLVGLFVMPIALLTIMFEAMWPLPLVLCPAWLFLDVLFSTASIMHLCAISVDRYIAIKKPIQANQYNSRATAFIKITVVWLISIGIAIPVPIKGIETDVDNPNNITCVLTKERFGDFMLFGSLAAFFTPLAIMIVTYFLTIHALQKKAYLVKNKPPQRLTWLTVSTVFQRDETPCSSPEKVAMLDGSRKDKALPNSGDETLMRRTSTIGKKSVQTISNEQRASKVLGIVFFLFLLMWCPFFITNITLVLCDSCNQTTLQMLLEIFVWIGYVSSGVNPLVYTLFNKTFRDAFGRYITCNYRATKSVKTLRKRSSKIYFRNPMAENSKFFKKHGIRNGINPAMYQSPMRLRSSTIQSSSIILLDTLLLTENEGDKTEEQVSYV

[8] = molecular target: Voltage-dependent N-type calcium channel subunit alpha-1B (Rattus norvegicus, UniProt Q02294); assay type: functional
Voltage-dependent N-type calcium channel subunit alpha-1B, sequence (Q02294 whole entry): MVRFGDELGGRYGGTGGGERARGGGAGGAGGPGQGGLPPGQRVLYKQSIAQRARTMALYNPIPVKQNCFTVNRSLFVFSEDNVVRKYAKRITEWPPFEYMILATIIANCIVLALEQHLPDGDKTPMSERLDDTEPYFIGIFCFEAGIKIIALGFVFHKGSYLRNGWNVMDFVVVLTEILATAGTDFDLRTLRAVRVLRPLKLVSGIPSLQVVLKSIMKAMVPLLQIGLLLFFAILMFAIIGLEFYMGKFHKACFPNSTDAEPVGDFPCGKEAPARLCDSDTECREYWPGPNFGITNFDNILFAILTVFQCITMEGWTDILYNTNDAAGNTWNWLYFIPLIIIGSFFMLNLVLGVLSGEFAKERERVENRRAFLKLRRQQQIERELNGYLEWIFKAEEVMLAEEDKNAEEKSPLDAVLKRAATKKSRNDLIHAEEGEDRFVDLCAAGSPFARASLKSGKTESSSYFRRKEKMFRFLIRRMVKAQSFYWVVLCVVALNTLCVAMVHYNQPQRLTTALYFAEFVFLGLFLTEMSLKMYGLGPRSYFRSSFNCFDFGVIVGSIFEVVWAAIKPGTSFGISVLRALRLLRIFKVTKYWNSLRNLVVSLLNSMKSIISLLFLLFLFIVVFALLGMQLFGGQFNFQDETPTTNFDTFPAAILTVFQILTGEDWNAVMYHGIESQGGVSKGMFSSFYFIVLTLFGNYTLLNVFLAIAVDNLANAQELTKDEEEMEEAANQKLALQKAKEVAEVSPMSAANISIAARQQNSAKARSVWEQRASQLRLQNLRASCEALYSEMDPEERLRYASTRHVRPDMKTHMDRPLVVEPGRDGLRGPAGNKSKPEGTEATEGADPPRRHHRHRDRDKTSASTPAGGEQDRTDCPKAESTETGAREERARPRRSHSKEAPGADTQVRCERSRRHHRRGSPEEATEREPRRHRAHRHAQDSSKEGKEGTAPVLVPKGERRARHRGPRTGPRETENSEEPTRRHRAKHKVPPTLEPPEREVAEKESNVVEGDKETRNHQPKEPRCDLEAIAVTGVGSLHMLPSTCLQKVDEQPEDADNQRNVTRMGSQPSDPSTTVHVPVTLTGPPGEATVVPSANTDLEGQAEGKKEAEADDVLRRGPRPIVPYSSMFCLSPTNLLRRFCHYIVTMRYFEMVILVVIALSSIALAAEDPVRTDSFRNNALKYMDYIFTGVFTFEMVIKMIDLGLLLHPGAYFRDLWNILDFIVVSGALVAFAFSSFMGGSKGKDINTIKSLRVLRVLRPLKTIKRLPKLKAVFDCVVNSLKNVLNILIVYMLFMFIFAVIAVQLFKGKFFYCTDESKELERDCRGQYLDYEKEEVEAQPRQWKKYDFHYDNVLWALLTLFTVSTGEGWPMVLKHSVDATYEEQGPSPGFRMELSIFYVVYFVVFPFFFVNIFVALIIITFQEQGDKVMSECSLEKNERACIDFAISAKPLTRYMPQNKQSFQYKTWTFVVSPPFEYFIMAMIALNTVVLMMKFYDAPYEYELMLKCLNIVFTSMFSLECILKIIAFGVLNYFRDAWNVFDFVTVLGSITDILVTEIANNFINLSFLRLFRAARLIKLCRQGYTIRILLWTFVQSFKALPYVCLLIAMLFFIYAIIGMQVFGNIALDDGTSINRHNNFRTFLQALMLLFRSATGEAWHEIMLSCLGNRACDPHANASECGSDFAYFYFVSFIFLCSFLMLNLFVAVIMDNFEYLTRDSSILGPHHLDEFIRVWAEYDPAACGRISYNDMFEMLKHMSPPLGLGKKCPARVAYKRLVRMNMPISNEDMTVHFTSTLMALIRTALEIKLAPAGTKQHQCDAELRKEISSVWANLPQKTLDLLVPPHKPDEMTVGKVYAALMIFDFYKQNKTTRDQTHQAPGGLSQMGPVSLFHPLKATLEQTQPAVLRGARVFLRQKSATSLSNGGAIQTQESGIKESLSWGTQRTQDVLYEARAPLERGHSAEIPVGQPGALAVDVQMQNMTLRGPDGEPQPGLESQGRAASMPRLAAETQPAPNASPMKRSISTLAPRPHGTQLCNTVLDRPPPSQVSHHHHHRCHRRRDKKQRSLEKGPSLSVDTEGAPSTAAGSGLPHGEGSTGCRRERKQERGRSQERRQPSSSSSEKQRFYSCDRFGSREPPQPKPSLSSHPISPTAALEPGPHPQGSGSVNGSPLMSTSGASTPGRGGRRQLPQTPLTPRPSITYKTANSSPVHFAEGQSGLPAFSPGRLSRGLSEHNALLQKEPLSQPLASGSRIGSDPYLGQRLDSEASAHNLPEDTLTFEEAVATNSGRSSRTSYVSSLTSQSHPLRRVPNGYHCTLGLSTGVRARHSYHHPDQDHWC

[9] = molecular target: T5, Corticotropin-releasing factor receptor 2 (Homo sapiens, UniProt Q13324)
T5 sequence (Q13324 whole entry): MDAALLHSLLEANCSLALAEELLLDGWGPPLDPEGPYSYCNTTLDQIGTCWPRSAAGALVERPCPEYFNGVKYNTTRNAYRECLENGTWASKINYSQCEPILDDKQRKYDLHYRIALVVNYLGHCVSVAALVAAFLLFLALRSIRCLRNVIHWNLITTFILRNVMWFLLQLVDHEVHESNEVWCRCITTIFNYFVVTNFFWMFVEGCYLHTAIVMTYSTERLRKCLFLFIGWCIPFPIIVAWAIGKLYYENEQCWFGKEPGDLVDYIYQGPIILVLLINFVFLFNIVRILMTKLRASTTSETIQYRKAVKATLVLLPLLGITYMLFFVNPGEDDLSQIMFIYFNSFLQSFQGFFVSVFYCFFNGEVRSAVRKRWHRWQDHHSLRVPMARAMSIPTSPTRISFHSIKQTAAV

[10] = molecular target: T6, Neuropeptide Y receptor type 2 (Homo sapiens, UniProt P49146)
T6 sequence (P49146 whole entry): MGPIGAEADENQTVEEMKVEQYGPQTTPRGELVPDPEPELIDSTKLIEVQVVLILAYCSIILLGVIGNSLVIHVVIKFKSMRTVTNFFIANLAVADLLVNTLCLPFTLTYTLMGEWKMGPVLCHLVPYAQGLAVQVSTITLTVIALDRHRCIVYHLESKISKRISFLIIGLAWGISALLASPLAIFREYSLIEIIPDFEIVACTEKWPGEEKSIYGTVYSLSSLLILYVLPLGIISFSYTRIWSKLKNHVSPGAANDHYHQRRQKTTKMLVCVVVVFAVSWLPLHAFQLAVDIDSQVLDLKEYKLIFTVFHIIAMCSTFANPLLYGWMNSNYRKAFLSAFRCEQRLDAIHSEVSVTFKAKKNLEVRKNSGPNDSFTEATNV
Further: assay procedure not described here.

5-hydroxytryptamine receptor 2A, sequence (P28223 whole entry): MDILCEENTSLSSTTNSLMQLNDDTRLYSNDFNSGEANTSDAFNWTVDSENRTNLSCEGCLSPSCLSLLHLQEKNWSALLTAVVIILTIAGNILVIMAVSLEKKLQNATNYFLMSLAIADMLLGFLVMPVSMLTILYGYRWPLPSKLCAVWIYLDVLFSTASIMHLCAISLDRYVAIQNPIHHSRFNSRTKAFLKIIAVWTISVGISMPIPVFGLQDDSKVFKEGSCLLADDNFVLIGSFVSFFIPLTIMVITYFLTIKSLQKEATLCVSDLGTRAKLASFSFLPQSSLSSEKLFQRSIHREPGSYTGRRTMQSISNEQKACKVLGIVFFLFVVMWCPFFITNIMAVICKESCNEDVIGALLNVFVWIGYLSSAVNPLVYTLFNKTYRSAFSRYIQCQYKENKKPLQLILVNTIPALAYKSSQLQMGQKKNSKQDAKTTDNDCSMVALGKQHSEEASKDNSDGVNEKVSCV

Row | SMILES | AC50 [1] | AC50 [2] | AC50 [3] | AC50 [4] | AC50 [5] | AC50 [6] | AC50 (Glucagon receptor) | AC50 [7] | AC50 [8] | AC50 [9] | AC50 [10]
1 | CN1CC(=O)N2[C@H](c3ccc4c(c3)OCO4)c3[nH]c4ccccc4c3C[C@@H]2C1=O | > 10 µM | – | – | – | – | – | – | – | – | – | –
2 | COc1ccc2cccc(CCNC(C)=O)c2c1 [AGOMELATINE] | – | > 10 µM | > 10 µM | > 30 µM | > 10 µM | > 30 µM | > 30 µM | 0.879 µM | > 10 µM | > 30 µM | > 30 µM
3 | CN1CCc2cccc3c2[C@H]1Cc1ccc(O)c(O)c1-3 [APOMORPHINE] | 0.964 µM | > 10 µM | – | > 30 µM | 2.37 µM | > 30 µM | > 30 µM | 1.27 µM | > 10 µM | > 30 µM | > 30 µM
4 | CC(C)c1c(C(=O)Nc2ccccc2)c(-c2ccccc2)c(-c2ccc(F)cc2)n1CC[C@@H](O)C[C@@H](O)CC(=O)O [ATORVASTATIN] | – | – | > 10 µM | > 30 µM | > 10 µM | > 30 µM | > 30 µM | – | > 10 µM | > 30 µM | > 30 µM
5 | NC(CO)C(=O)NNCc1ccc(O)c(O)c1O (stereo unspecified) [BENSERAZIDE] | > 10 µM | > 10 µM | > 10 µM | > 30 µM | > 10 µM | > 30 µM | > 30 µM | > 10 µM | > 10 µM | > 30 µM | > 30 µM
6 | Cc1cc2c(OCC(CNC(C)(C)C)OC(=O)c3ccccc3)cccc2[nH]1 (stereo unspecified) [BOPINDOLOL] | – | – | 0.0522 µM | – | – | – | – | – | – | – | –
7 | CN(C)C(=O)OC1N=C(c2ccccc2)c2cc(Cl)ccc2N(C)C1=O (stereo unspecified) [CAMAZEPAM] | > 10 µM | > 10 µM | > 10 µM | > 30 µM | > 10 µM | > 30 µM | > 30 µM | > 10 µM | > 10 µM | > 30 µM | > 30 µM
8 | CCOc1cc(N)c([N+](=O)[O-])cc1C(=O)NC1CCN(CC2CC=CCC2)CC1 (stereo unspecified) [CINITAPRIDE] | 0.009 µM | – | – | – | – | – | – | 0.0023 µM | – | – | –
9 | CCCCCCCCCCCC[N+](C)(C)CCOc1ccccc1 [DOMIPHEN] | 0.14 µM | – | – | – | – | – | – | – | – | – | –
10 | CN[C@@H](C)[C@H](O)c1ccccc1 [EPHEDRINE] | – | > 10 µM | > 10 µM | > 30 µM | > 10 µM | > 30 µM | > 30 µM | > 10 µM | > 10 µM | > 30 µM | > 30 µM
11 | C#CC1(OC(N)=O)CCCCC1 [ETHINAMATE] | > 10 µM | – | – | – | – | – | – | – | – | – | –
12 | CCNC(C)Cc1cccc(C(F)(F)F)c1 (stereo unspecified) [FENFLURAMINE] | – | > 10 µM | – | > 30 µM | – | > 30 µM | > 30 µM | – | > 10 µM | > 30 µM | > 30 µM
13 | CCCCCN(C)CCC(O)(P(=O)(O)O)P(=O)(O)O [IBANDRONIC ACID] | > 10 µM | – | > 10 µM | > 30 µM | > 10 µM | > 30 µM | > 30 µM | > 10 µM | > 10 µM | > 30 µM | > 30 µM
14 | CC(C)[N+](C)(CCC(C(N)=O)(c1ccccc1)c1ccccc1)C(C)C [ISOPROPAMIDE] | – | 0.012 µM | – | – | – | – | – | – | – | – | –
15 | CN1CC[C@]23CCCC[C@H]2[C@H]1Cc1ccc(O)cc13 [LEVORPHANOL] | – | – | – | – | 19 µM | – | – | – | – | – | –
16 | CCN1CCC[C@H]1CNC(=O)c1cc(S(N)(=O)=O)ccc1OC [LEVOSULPIRIDE] | – | – | > 10 µM | – | > 10 µM | – | – | – | – | – | –
17 | Cc1cc(-c2ccccc2)nnc1NCCN1CCOCC1 [MINAPRINE] | > 10 µM | > 10 µM | > 10 µM | > 30 µM | > 10 µM | > 30 µM | > 30 µM | 1.4 µM | > 10 µM | > 30 µM | > 30 µM
18 | NC(=O)C[S+]([O-])C(c1ccccc1)c1ccccc1 (stereo unspecified) [MODAFINIL] | – | > 10 µM | > 10 µM | 23.5 µM | > 10 µM | > 30 µM | > 30 µM | > 10 µM | > 10 µM | > 30 µM | > 30 µM
19 | CCCCCCCCOc1ccccc1C(=O)Nc1ccc(C(=O)OCC[N+](C)(CC)CC)cc1 [OTILONIUM BROMIDE] | – | – | > 30 µM | – | – | – | – | 0.712 µM | – | – | –
20 | CN1CCCN=C1COC(=O)C(O)(c1ccccc1)C1CCCCC1 (stereo unspecified) [OXYPHENCYCLIMINE] | – | 0.0263 µM | – | – | – | – | – | – | – | – | –
21 | O=C(O)CCCc1ccccc1 [PHENYLBUTANOIC ACID] | > 10 µM | > 10 µM | > 10 µM | > 30 µM | > 10 µM | > 30 µM | > 30 µM | > 10 µM | > 10 µM | > 30 µM | > 30 µM
22 | CC(Cc1ccccc1)NCCC(c1ccccc1)c1ccccc1 (stereo unspecified) [PRENYLAMINE] | 3.38 µM | – | 0.957 µM | – | – | – | – | – | – | – | –
23 | CCN(CC)CCOC(=O)c1ccc(N)cc1 [PROCAINE] | – | – | > 10 µM | – | > 10 µM | – | – | – | > 10 µM | – | –
24 | C1COC(NC(C2CC2)C2CC2)=N1 [RILMENIDINE] | > 10 µM | – | 20.5 µM | – | 3.49 µM | – | – | – | – | – | –
25 | O=C1NCCN1CCN1CCC(c2cn(-c3ccc(F)cc3)c3ccc(Cl)cc23)CC1 [SERTINDOLE] | – | – | – | – | – | – | – | 0.012 µM | – | – | –
26 | CN1CCN(C(=O)OC2c3nccnc3C(=O)N2c2ccc(Cl)cn2)CC1 (stereo unspecified) [ZOPICLONE] | > 10 µM | – | > 10 µM | > 30 µM | > 10 µM | > 30 µM | > 30 µM | > 10 µM | > 10 µM | > 30 µM | > 30 µM
